Literature values in patent US7612214B2, “Organic amine salts of glutamic acid derivatives and their application” (Ajinomoto Co., Inc., priority 2003, dated 2009).
Values joined by “and” are separate entries in the source; they are usually repeats but may differ in a detail not shown here. Identical values can stand only once.

Settings: (2S,4S) isomer derived from the natural plant; literature report (Vleggaar et al.)

In the case of `N[C@@H](C[C@@](O)(Cc1c[nH]c2ccccc12)C(=O)O)C(=O)O` [(2S,4S) isomer, (2S,4S)-2-amino-4-carboxy-4-hydroxy-5-(3-indolyl)pentanoic acid], the degree of sweetness is listed as 800 times of sucrose and 1400 times of sucrose.
